Reference: PubChem BioAssay AID463229 (Broad Institute, 2010)
Activity calls are given as the source filed them.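 How the source made its calls: active means compounds raising the signal whose fitted half-maximal concentration is at or below their top tested dose (cut at about 25 µM in these data); inconclusive means flat fit at 30 to 70% activity, or a poor fit; inactive means the rest.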

test system: INS-1E rat beta cells, no cytokines, CellTiter-Glo ATP, 48 h; test: ATP level change in INS-1E without cytokines, dose response, counter-screen for beta-cell apoptosis protection project, INS-1E rat cells, ATP luminescence, cherry pick (AID 463229)

Row | SMILES | AC50
1 | CC(=O)c1c(C)[nH]c(C(=O)OCc2cccc(Cl)c2)c1C | 25.4 µM
2 | CN(C)C1CCN(Cc2cc(COCc3ccccc3)c3cccnc3c2O)C1 (stereo not drawn) | 10.9 µM
3 | CN(C)c1cc[n+](CC(=O)c2ccc(-c3ccccc3)cc2)cc1 | 1.22 µM
4 | Cc1nn(S(=O)(=O)c2ccc(Cl)cc2)c(C)c1Sc1ccc([N+](=O)[O-])cc1 | 7.69 µM
5 | COc1cccc(CN(C)C(=O)c2cc(COc3ccc4ncccc4c3)on2)c1 | 6.86 µM
6 | Oc1cccc(/C=N/Nc2ccc(Cl)nn2)c1O | 4.69 µM
7 | C(=N\Nc1ncnc2sc3c(c12)CCC3)/c1cccs1 | 9.08 µM
8 | Cc1ccc(-c2cn(-c3ccc(OC(F)F)cc3)c3[n+]2CCCCC3)cc1 | 1.45 µM
9 | CCCCCCc1cc2cc(C(=O)Nc3cccc(OC)c3)c(=O)oc2cc1O | 4.41 µM
10 | CCC(CNc1cc(OC)cc2cccnc12)NC1CCCCC1 (stereo not drawn) | > 26 µM (inactive)
11 | CCCCCCCCCCOC(=O)Cn1c(COc2ccccc2C)[n+](C)c2ccccc21 | 3.22 µM
12 | O=C(Nc1ccc(C(=O)Nc2ccccc2Cl)cc1)c1cccnc1 | 1.85 µM
13 | C#CCOCCOCCOCCNc1nc(N2CCN(C(=O)CCCCCCCCCCNC(=O)Cn3cc(CCCCCN)nn3)CC2)nc(N2CCN(C(=O)CCCCCCCCCCNC(=O)[C@H]([C@@H](C)CC)n3cc(CCCCN=C(N)N)nn3)CC2)n1 | 8.89 µM
14 | COc1ccc(-c2sc3ccccc3c2-c2ccc(OCCN3CCCCC3)cc2)cc1 | 14.8 µM
15 | Cc1ccc(NC(=O)c2cc(S(=O)(=O)NCCC3=CCCCC3)ccc2F)cc1 | 7.48 µM
16 | Cc1cccc2sc(NNC(=O)c3ccc(S(=O)(=O)N4CC(C)CC(C)C4)cc3)nc12 (stereo not drawn) | 6.52 µM
17 | COc1ccccc1C(=O)Nc1nc2ccccc2[nH]1 | 1.22 µM
18 | COc1ccc(Cn2c(SCc3cc(C)ccc3C)nc3cc(OC)c(OC)cc3c2=N)cc1 | 7.22 µM
19 | c1nc(NCc2ccc3c(c2)OCO3)c2cc(-c3ccc4c(c3)OCCO4)ccc2n1 | 15.5 µM
20 | COc1ccccc1C(CCNCc1ccc(N(C)C)cc1)c1ccc(OC(C)C)cc1 (stereo not drawn) | 9.78 µM
21 | COc1cc(OC)nc(-n2ncc(Br)c(Br)c2=O)n1 | 6.66 µM
22 | COC(=O)c1cc(O)cc(OC)c1Oc1cc(C)cc(O)c1C(=O)O | 5.37 µM
23 | CN(c1ccccc1)S(=O)(=O)c1ccc(NC(=O)c2nc(S(C)(=O)=O)ncc2Cl)cc1 | 7.32 µM
24 | COCCC1CCCCN1C(=O)c1cc(COc2ccc(-n3cncn3)cc2)on1 (stereo not drawn) | 6.35 µM
25 | Cc1onc(-c2c(Cl)cccc2Cl)c1C(=O)N/N=C(\N)COc1ccc(Cl)cc1 | 14.5 µM
26 | O=C(CSc1nnc(Cn2nnc3ccccc32)o1)N(Cc1ccc(F)cc1)c1ccccc1 | 7.94 µM

Row | SMILES | AC50
27 | O=C(Nc1cccc(C(F)(F)F)c1)Oc1ccc(Cl)c2cccnc12 | 7.64 µM
28 | CC(C)C(=O)NC(=S)/C=C1/N(C)c2ccccc2C1(C)C | 7.7 µM
29 | CCN(CC)c1ccc(/C=N/NC(=O)c2ccco2)c(O)c1 | 2.11 µM
30 | COc1ccccc1CNc1ncnc2sccc12 | 11.9 µM
31 | Cc1ccc(/C=N/NC(=O)Cc2ccc(Cl)cc2)c(O)c1 | 12.3 µM
32 | CCc1ccc(Nc2n[n+](-c3ccccc3)c(-c3c(Cl)cccc3Cl)s2)cc1 | 4.08 µM
33 | Cc1c(C(C)C)c(=O)n(-c2ccc(S(=O)(=O)NCc3ccccc3)cc2)n1C | 3.71 µM
34 | Cc1ccc(C)c(N=Nc2ccc(O)c3ncccc23)c1 | 3.98 µM
35 | Cc1ccc(S(=O)(=O)Nc2cc(Cl)c(O)c3ncccc23)cc1 | 4.38 µM
36 | CN(C)S(=O)(=O)c1cccc(CSCc2cccc(S(=O)(=O)N(C)C)c2)c1 | 7.78 µM
37 | COc1ccc(C)cc1Nc1n[n+](-c2ccccc2)c(-c2ccc(N(C)C)cc2)s1 | 2.9 µM
38 | CCS(=O)(=O)c1ncc(Cl)c(C(=O)Nc2ccc(S(=O)(=O)N(C)c3ccccc3)cc2)n1 | 6.63 µM
39 | CCN(CC)c1ccc(/C=N/NC(=O)CCC(=O)NCc2ccccc2)c(O)c1 | 7.22 µM
40 | CCn1c(C)nc2cc(C(=O)N/N=C/c3cccc(O)c3O)ccc21 | 8.42 µM
41 | O=C(O)CCCC(=O)Nc1ccc(C(=O)NCc2cccnc2)cc1 | 4.54 µM
42 | COc1ccc(C(=O)N(C)c2ccccc2C(=O)NCCc2ccccc2)cc1 | 7.85 µM
43 | C[n+]1c2n(c3ccccc31)N=C(c1ccc(-c3ccccc3)cc1)CS2 | 1.74 µM
44 | Cc1ccc(C(=O)C[n+]2cc(-c3ccc(C)cc3)n3c2CCCCC3)cc1 | 1.4 µM
45 | CN1/C(=C\C=C2/SC(=S)NC2=O)C(C)(C)c2ccccc21 | 3.38 µM
46 | CC(=O)Oc1c(C)cc(Cl)cc1C(=O)Nc1ccc([N+](=O)[O-])cc1Cl | 1.43 µM
47 | CCOC(=O)/C(=C\c1ccccc1)C(=O)c1cc(C(C)=O)c(Nc2ccccc2)s1 | 6.53 µM
48 | COc1cccc(/C=N/NC(=O)c2cc3cc([N+](=O)[O-])ccc3s2)c1O | 7.08 µM
49 | CCOc1cc(C)c(S(=O)(=O)Nc2ccc3cn[nH]c3c2)cc1C | 9.86 µM
50 | Cc1ccc2nc(-c3cccc(-c4cccc(Cl)c4)c3)c(NCc3ccccc3)n2c1 | 7.11 µM
51 | Cn1c2c(c(=O)n(C)c1=O)C(C(F)(F)F)(C(F)(F)F)N=C(c1ccc(Cl)cc1)N2 | 0.56 µM
52 | CCCCOc1ccc(C(=O)NNC(=S)NC(=O)CC)cc1 | 14.3 µM

Row | SMILES | AC50
53 | Cc1ccc(C(C)C)c(OCC(O)CN2CCc3ccccc3C2)c1 (stereo not drawn) | 9.7 µM
54 | COc1ccc(CNc2ncnc3sccc23)cc1 | 11.3 µM
55 | CCn1c(=NC(=O)CCS(=O)(=O)c2ccccc2)sc2cccc(OC)c21 | 7.2 µM
56 | CCCCOc1ccc(-c2cc(C(=O)NNC(=S)NCC)c3ccccc3n2)cc1 | 6.66 µM
57 | Oc1c(CN2CCOCC2)cc(COCc2ccccc2)c2cccnc12 | 8.19 µM
58 | [O-][N+]1=c2ccc(Nc3ccccc3)cc2=NC12CCCCC2 | 12.5 µM
59 | Oc1c(CN2CCN(c3ccc(F)cc3)CC2)cc(Cl)c2cccnc12 | 4.27 µM
60 | C/C(=N/Nc1nc(-c2ccccc2)cc(-c2ccc(F)cc2)n1)c1cccc(N)c1 | 15.1 µM
61 | COc1cc(NC(=O)c2ccccc2NS(=O)(=O)c2ccc(Cl)s2)cc(OC)c1 | 6.97 µM
62 | CC(C)(C)c1nnc(N/N=C/c2cc(Br)ccc2O)n(N)c1=O | 3.97 µM
63 | Oc1ccc2ccccc2c1N=Nc1nccs1 | 6.54 µM
64 | C/C(=N\NC(=O)c1cc(Br)ccc1O)c1ccccn1 | 7.82 µM
65 | Cc1ccc(-c2cc(-c3ccc(C)cc3)[n+](-c3ccccc3)c(-c3ccc(C)cc3)c2)cc1 | 0.577 µM
66 | COc1ccc(-c2nc(-c3ccccn3)no2)cc1 | 3.11 µM
67 | c1ccc(-c2cc(-c3ccccc3)[n+](-c3ccccc3)c(-c3ccccc3)c2)cc1 | 2.65 µM
68 | CN(C)CCCn1cnc2c(c1=N)C(c1ccccc1)c1ccc3ccccc3c1O2 (stereo not drawn) | 7.08 µM
69 | NNc1ncnc2scc(-c3ccc(Cl)cc3)c12 | 14.5 µM
70 | Cc1ccccc1-[n+]1c(-c2ccccc2)cc(-c2ccccc2)cc1-c1ccccc1 | 2.2 µM
71 | O=C(CCCCCCCCCCC(=O)NCc1cccnc1)NCc1cccnc1 | < 0.195 µM
72 | Nc1nc(Cl)cc(N2CCC(c3cc(-c4ccc(Cl)cc4)n[nH]3)CC2)n1 | 5.56 µM
73 | COc1ccc(CCNc2ncnc3sc(C)cc23)cc1OC | 1.33 µM
74 | COc1cccc(/C=N/NC(=O)c2c(-c3ccccc3)noc2C)c1O | 8.09 µM
75 | COc1ccc(Cc2nc(-c3ccc(NC(=O)c4cccnc4)cc3)no2)cc1 | 0.286 µM
76 | CCC(C)(C)c1ccc(OCCCC[n+]2cccc(C)c2C)c(C(C)(C)CC)c1 | 0.804 µM
77 | Cc1ccc(OCCN2CCN(c3ncnc4sc(C)c(C)c34)CC2)cc1 | 4.03 µM
78 | CCCCCCn1c(=O)c(C(=O)Nc2ncccc2C)c(O)c2ccccc21 | 5.5 µM
